Experiment [1] concerns the target Myosin light chain kinase, smooth muscle (Homo sapiens, UniProt Q15746). Nature of the experiment: Inhibition of SmMLCK in the presence of 50uM ATP.
Experiment [2] has as its target Proto-oncogene tyrosine-protein kinase LCK (Mus musculus, UniProt P06240). Nature of the experiment: Inhibition of Lck in the presence of 50uM ATP.
The target in experiment [3] is Casein kinase I isoform delta (Homo sapiens, UniProt P48730).
Experiment [4] addresses Serine/threonine-protein kinase Sgk1 (Homo sapiens, UniProt O00141). Nature of the experiment: Inhibition of SGK1 in the presence of 20uM ATP.
The target of experiment [5] is Aurora kinase B (Homo sapiens, UniProt Q96GD4). Nature of the experiment: Inhibition of Aurora B in the presence of 20uM ATP.
Sequence of Aurora kinase B (Q96GD4 whole entry): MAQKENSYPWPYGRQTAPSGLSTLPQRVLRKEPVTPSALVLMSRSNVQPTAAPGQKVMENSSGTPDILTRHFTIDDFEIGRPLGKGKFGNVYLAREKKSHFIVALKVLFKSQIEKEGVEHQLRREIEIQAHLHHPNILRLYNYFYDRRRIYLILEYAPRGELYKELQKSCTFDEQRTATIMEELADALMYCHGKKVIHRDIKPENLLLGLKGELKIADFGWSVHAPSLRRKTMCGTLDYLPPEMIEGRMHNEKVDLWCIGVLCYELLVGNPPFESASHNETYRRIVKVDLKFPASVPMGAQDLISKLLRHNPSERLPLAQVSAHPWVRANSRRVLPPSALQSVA
Experiment [6] has as its target Dual specificity tyrosine-phosphorylation-regulated kinase 3 (Homo sapiens, UniProt O43781). Nature of the experiment: Inhibition of DYRK3 in the presence of 5uM ATP.
For experiment [7], the target named is T1, Receptor-interacting serine/threonine-protein kinase 2 (Homo sapiens, UniProt O43353). Nature of the experiment: Percentage RIP2 activity remaining in the presence of 1uM inhibitor. The settings on record: filed as antagonist.
T1 sequence (O43353 whole entry): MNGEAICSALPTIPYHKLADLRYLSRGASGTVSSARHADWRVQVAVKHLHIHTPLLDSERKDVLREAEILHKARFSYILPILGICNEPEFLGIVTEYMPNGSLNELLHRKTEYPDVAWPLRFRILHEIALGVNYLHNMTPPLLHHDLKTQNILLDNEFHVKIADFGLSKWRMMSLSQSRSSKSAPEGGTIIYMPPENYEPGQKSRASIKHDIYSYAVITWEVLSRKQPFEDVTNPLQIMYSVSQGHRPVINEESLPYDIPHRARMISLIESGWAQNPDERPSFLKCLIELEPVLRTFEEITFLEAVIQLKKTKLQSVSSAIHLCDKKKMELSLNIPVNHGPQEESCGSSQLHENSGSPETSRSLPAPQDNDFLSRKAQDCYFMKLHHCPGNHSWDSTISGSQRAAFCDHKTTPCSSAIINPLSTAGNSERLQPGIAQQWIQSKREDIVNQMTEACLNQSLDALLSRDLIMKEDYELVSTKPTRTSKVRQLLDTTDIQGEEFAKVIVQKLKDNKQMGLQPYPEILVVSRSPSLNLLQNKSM
In experiment [8] the target is Serine/threonine-protein kinase pim-2 (Homo sapiens, UniProt Q9P1W9). Nature of the experiment: Inhibition of PIM2 in the presence of 5uM ATP.
Sequence of Serine/threonine-protein kinase pim-2 (Q9P1W9 whole entry): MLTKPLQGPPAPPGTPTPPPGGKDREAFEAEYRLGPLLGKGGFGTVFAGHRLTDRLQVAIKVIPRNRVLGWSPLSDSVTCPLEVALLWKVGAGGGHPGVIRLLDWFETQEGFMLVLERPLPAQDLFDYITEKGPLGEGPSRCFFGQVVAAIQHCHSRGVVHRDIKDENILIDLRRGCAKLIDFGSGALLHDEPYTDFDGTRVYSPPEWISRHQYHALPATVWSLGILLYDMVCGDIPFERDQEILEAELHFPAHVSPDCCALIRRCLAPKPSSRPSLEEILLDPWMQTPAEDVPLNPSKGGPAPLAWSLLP
Experiment [9] deals with T2, Serine/threonine-protein kinase pim-3 (Homo sapiens, UniProt Q86V86). Nature of the experiment: Inhibition of PIM3 in the presence of 20uM ATP.
For experiment [10], the target named is Serine/threonine-protein kinase pim-1 (Homo sapiens, UniProt P11309). Nature of the experiment: Inhibition of PIM1 in the presence of 20uM ATP.
Sequence of Serine/threonine-protein kinase pim-1 (P11309 whole entry): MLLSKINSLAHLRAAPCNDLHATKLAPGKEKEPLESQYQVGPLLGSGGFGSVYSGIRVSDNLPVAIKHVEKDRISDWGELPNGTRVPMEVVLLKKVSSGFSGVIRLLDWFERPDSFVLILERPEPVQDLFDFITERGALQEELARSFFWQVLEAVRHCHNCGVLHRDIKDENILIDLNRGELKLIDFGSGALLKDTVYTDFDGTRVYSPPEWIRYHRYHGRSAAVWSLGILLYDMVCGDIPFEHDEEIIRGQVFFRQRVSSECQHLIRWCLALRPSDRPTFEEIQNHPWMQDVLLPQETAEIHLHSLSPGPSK
In experiment [11] the target is T3, Cyclin-G-associated kinase (Homo sapiens) (UniProt O14976).
T3 sequence (whole entry): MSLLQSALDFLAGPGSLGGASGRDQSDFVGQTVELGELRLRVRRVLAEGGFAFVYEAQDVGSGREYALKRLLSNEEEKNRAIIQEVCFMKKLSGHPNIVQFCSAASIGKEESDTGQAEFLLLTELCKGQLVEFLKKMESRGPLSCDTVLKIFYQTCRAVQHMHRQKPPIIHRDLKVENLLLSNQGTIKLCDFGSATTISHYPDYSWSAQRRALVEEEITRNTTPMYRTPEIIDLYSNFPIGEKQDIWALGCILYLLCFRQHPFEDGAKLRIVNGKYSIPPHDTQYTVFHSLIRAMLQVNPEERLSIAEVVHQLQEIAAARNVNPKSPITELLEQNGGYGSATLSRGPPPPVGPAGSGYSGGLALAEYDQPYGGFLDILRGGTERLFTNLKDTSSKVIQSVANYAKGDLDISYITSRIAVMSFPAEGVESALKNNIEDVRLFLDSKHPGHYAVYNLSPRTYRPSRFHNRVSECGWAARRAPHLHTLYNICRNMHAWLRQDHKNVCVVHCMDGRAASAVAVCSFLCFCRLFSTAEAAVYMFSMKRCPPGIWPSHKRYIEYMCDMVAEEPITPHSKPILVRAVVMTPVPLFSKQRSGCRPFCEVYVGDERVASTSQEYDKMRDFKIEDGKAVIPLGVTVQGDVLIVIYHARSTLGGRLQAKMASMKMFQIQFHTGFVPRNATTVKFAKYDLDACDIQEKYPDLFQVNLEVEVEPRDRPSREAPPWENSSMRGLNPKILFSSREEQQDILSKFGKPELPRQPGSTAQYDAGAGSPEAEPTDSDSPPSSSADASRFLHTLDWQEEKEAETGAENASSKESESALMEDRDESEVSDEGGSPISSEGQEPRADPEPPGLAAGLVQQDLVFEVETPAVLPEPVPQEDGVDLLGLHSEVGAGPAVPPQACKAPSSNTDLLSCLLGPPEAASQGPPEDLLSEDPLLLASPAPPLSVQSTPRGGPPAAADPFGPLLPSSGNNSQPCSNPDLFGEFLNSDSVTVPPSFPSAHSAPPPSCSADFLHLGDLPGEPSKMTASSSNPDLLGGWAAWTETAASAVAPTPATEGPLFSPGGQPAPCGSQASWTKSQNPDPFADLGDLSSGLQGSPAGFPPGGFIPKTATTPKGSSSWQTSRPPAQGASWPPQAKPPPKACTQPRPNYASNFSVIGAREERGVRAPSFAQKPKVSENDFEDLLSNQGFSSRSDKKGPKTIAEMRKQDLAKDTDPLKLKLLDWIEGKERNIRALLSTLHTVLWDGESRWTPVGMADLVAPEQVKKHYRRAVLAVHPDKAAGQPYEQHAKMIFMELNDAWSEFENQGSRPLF
Nature of the experiment: Percentage GAK activity remaining in the presence of 1uM inhibitor. Conditions: filed as antagonist.

For experiment [12], the target named is Tyrosine-protein kinase CSK (Homo sapiens, UniProt P41240). Nature of the experiment: Inhibition of CSK in the presence of 20uM ATP.
The target of experiment [13] is T1, Receptor-interacting serine/threonine-protein kinase 2. Nature of the experiment: Percentage RIP2 activity remaining in the presence of 10uM inhibitor. The settings on record: filed as antagonist.
The target of experiment [14] is Mitogen-activated protein kinase 8 (Homo sapiens, UniProt P45983, M108G). Nature of the experiment: Inhibition of JNK-M108G in the presence of 20uM ATP.
Sequence of Mitogen-activated protein kinase 8 (Homo sapiens, UniProt P45983, M108G) (P45983 whole entry M108G): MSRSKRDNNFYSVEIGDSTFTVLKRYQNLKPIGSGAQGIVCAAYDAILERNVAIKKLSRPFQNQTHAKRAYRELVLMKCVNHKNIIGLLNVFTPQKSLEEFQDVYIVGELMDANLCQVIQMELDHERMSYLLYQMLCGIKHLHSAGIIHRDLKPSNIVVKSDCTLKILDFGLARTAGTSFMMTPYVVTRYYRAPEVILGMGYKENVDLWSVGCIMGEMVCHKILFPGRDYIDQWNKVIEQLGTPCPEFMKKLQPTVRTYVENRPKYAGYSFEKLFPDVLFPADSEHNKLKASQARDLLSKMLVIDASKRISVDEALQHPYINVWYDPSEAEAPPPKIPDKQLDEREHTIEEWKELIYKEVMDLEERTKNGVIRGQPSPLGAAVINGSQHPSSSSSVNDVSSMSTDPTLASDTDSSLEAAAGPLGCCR
The target in experiment [15] is Mitogen-activated protein kinase 8 (Homo sapiens, UniProt P45983, M108A). Nature of the experiment: Inhibition of JNK-M108A in the presence of 20uM ATP.
Sequence of Mitogen-activated protein kinase 8 (Homo sapiens, UniProt P45983, M108A) (P45983 whole entry M108A): as the sequence (P45983 whole entry M108G) above, with G108A counted along it
The target in experiment [16] is Serine/threonine-protein kinase D1 (Homo sapiens, UniProt Q15139). Nature of the experiment: Inhibition of PKD1 in the presence of 50uM ATP.
Sequence of Serine/threonine-protein kinase D1 (Q15139 whole entry): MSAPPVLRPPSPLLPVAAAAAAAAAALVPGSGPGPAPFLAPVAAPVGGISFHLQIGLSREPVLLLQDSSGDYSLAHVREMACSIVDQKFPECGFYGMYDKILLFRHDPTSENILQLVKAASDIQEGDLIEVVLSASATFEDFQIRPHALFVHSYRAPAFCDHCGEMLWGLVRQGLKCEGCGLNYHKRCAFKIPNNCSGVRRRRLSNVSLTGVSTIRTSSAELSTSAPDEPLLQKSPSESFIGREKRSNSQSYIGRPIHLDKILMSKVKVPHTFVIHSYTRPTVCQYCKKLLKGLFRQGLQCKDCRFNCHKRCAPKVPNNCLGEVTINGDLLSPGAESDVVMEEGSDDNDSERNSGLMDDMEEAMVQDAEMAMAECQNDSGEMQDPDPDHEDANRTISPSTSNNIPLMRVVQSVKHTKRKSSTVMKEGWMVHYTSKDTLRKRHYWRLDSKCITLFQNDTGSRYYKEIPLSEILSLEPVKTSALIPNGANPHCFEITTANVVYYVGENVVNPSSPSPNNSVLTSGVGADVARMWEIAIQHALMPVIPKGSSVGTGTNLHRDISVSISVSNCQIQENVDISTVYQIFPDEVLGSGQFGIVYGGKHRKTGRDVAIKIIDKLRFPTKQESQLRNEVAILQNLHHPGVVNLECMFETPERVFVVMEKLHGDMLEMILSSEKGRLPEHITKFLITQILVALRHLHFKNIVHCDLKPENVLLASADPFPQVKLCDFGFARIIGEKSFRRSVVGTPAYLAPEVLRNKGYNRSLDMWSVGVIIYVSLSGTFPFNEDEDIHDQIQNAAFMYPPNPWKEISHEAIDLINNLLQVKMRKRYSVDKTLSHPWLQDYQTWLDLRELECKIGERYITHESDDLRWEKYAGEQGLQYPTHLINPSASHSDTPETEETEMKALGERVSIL
Experiment [17] has as its target T3, Cyclin-G-associated kinase (Homo sapiens). Nature of the experiment: Percentage GAK activity remaining in the presence of 10uM inhibitor. Conditions: filed as antagonist.
Experiment [18] deals with T1, Receptor-interacting serine/threonine-protein kinase 2. Nature of the experiment: Inhibition of RIP2 in the presence of 100uM ATP.
Experiment [19] deals with cAMP-dependent protein kinase catalytic subunit alpha (Homo sapiens, UniProt P17612). Nature of the experiment: Inhibition of PKA in the presence of 20uM ATP.
Experiment [20] is described as follows: Inhibition of AMPK in the presence of 50uM ATP. On the set-up: species or system Rattus norvegicus.
Experiment [21] concerns the target Dual specificity tyrosine-phosphorylation-regulated kinase 2 (Homo sapiens, UniProt Q92630). Nature of the experiment: Inhibition of DYRK2 in the presence of 50uM ATP.
The target of experiment [22] is T2, Serine/threonine-protein kinase pim-3. Nature of the experiment: Inhibition of PIM3 in the presence of 100uM ATP.
Experiment [23] concerns the target Casein kinase II (Homo sapiens, UniProt P19784+P67870+P68400). Nature of the experiment: Inhibition of CK2 in the presence of 5uM ATP. In kind it is protein-complex assay.
For experiment [24], the target named is Proto-oncogene tyrosine-protein kinase Src (Gallus gallus, UniProt P00523). Nature of the experiment: Inhibition of Src in the presence of 50uM ATP.
The target of experiment [25] is Serine/threonine-protein kinase BRSK2 (Homo sapiens, UniProt Q8IWQ3). Nature of the experiment: Inhibition of BRSK2 in the presence of 50uM ATP.
Experiment [26] has as its target Serine/threonine-protein kinase 3 (Homo sapiens, UniProt Q13188). Nature of the experiment: Inhibition of MST2 in the presence of 50uM ATP.
In experiment [27] the target is Aurora kinase C (Homo sapiens, UniProt Q9UQB9). Nature of the experiment: Inhibition of Aurora C in the presence of 5uM ATP.
Experiment [28] deals with Glycogen synthase kinase-3 beta (Homo sapiens, UniProt P49841). Nature of the experiment: Inhibition of GSK3-beta in the presence of 20uM ATP.
The target in experiment [29] is T2, Serine/threonine-protein kinase pim-3. Nature of the experiment: Inhibition of PIM3 in the presence of 5uM ATP.
Experiment [30] deals with Mitogen-activated protein kinase 9 (Homo sapiens, UniProt P45984). Nature of the experiment: Inhibition of JNK2 in the presence of 20uM ATP.
The target in experiment [31] is Mitogen-activated protein kinase 8 (Homo sapiens, UniProt P45983). Nature of the experiment: Inhibition of JNK1 in the presence of 20uM ATP.
Sequence of Mitogen-activated protein kinase 8 (Homo sapiens, UniProt P45983) (P45983 whole entry): as the sequence (P45983 whole entry M108G) above, with G108M counted along it
Experiment [32] has as its system HEK293. Nature of the experiment: Inhibition of CHK1-S345 phosphorylation in MMS treated HEK293 cells at 0.5uM. The settings on record: Homo sapiens. In kind it is functional, cell-based.
The subject of experiment [33] is HEK293. Nature of the experiment: Inhibition of CHK2-T68 phosphorylation in MMS treated HEK293 cells at 0.5uM. In kind it is functional, cell-based. The settings on record: Homo sapiens.
In experiment [34] the test system is HEK293. Nature of the experiment: Inhibition of PKB-S473 phosphorylation in IGF-1 treated HEK293 cells at 0.5uM. Format: functional, cell-based. The settings on record: Homo sapiens, filed as antagonist.
Experiment [35] addresses Mitogen-activated protein kinase 14 (Homo sapiens, UniProt Q16539).
In experiment [36] the target is Serine/threonine-protein kinase PLK1 (Homo sapiens, UniProt P53350). Nature of the experiment: Inhibition of PLK1 in the presence of 5uM ATP.

The structures appear in SMILES notation. Activity calls are given as the source filed them. The calls are words filed in the database; no cut-off is given here.

One may read the IC50 as the point on the concentration scale where inhibition reaches its midpoint.

Sequence of Proto-oncogene tyrosine-protein kinase LCK (P06240 whole entry, canonical isoform): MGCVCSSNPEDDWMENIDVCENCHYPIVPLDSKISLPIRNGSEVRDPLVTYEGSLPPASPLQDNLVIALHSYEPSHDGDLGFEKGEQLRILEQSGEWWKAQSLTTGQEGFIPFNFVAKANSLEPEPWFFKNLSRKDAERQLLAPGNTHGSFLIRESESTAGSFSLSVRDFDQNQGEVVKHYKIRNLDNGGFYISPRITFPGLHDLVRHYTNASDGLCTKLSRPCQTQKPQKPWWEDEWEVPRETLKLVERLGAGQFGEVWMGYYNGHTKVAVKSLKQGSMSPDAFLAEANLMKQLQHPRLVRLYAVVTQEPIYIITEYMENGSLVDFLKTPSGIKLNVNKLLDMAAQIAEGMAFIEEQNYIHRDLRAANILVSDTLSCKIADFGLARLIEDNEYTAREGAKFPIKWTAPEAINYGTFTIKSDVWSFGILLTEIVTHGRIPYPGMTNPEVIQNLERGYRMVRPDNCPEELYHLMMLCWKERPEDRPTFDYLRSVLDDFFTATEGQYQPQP
Sequence of Dual specificity tyrosine-phosphorylation-regulated kinase 2 (Q92630 whole entry): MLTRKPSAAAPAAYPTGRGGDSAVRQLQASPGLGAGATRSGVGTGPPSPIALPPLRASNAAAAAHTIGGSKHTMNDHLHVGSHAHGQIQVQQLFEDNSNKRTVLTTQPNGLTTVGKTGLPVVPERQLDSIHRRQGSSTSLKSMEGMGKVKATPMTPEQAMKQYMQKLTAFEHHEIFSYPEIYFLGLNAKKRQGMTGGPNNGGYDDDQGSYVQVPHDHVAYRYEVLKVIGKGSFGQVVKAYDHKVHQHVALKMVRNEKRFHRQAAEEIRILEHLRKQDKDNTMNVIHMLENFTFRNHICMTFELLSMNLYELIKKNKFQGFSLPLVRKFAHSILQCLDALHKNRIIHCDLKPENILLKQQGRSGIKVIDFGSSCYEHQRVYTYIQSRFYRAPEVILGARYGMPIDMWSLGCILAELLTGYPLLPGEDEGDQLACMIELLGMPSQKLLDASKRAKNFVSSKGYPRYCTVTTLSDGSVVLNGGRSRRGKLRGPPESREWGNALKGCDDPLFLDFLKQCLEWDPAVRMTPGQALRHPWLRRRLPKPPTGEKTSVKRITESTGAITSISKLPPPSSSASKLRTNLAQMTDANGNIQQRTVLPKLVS
Sequence of Casein kinase I isoform delta (P48730 whole entry, canonical isoform): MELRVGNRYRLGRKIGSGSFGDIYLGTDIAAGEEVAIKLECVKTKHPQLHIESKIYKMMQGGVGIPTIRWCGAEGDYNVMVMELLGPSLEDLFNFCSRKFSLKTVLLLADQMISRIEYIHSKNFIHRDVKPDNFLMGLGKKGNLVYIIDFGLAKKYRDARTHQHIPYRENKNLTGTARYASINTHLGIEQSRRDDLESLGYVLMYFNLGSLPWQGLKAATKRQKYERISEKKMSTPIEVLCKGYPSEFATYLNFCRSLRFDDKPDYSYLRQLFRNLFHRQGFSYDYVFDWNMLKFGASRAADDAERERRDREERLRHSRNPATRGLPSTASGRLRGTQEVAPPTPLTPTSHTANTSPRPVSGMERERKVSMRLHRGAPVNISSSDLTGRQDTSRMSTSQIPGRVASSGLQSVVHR

For `COC[C@H]1OC(=O)c2coc3c2[C@@]1(C)C1=C(C3=O)[C@@H]2CCC(=O)[C@@]2(C)C[C@H]1OC(C)=O` [WORTMANNIN], in experiment [1], the IC50 is given as 5 µM (antagonist).
For the molecule `Nc1ncnc2[nH]nc(Nc3ccc(F)cc3)c12`, the IC50 is 2.5 µM (antagonist) in [2]; 0.51 µM (antagonist) in experiment [3]; 2.7 µM (antagonist) in experiment [4]; 2.5 µM (antagonist) in experiment [5]; 3.2 µM (antagonist) in experiment [6].
As for `O=C1Nc2ccc(I)cc2C1=Cc1cc(Br)c(O)c(Br)c1` [GW305074X], the figures for the Activity in experiment [7] and in [11] were 35% and 32%, respectively. In addition, the figures for the IC50 in experiment [8], in [9] and in [10] were 0.07 µM (antagonist), 0.1 µM (antagonist) and 0.17 µM (antagonist), respectively.
As to `CC(C)(C)n1nc(Cc2cccc3ccccc23)c2c(N)ncnc21`, the IC50 is 0.46 µM (antagonist) in experiment [2]; 0.51 µM (antagonist) in [12]; 0.14 µM (antagonist) in experiment [14]; 0.25 µM (antagonist) in experiment [15]; 0.25 µM (antagonist) in experiment [16]; 0.13 µM (antagonist) in experiment [18]. In addition, the IC50 in experiment [19] was 0.5 µM (antagonist). Further, the Activity in experiment [13] was 5%; in [7], 14%; in [17] it was 6%; in experiment [11], 43%.
On to `O=C(O)c1ccc2c3c1cccc3c(=O)n1c3ccccc3nc21`, for which the IC50 was 0.16 µM (antagonist) in experiment [20]; 0.95 µM (antagonist) in experiment [21]; 0.11 µM (antagonist) in [8]; 0.083 µM (antagonist) in experiment [22]; 0.19 µM (antagonist) in [23].
Turning to `CC(C)(C)n1nc(-c2cccc3ccccc23)c2c(N)ncnc21`, the IC50 in experiment [2] is 0.66 µM (antagonist); in experiment [14] it was 0.62 µM (antagonist); in experiment [15], 0.27 µM (antagonist); in [24], 0.34 µM (antagonist); in experiment [18], 0.12 µM (antagonist).
On to `CN(C)S(=O)(=O)c1ccc2c(c1)/C(=C/c1cc3c([nH]1)CCCC3)C(=O)N2`, for which the IC50 in [2] was 0.15 µM (antagonist); in [20], 0.11 µM (antagonist); in experiment [5], 0.019 µM (antagonist); in experiment [25], 0.1 µM (antagonist); in experiment [24] it was 0.1 µM (antagonist); in [26] it was 0.11 µM (antagonist). Besides, in experiment [27], the IC50 was 0.017 µM (antagonist).
Consider `N#C/C(=C1/Nc2ccccc2S1)c1ccnc(NCCc2cccnc2)n1`, for which the half-inhibitory concentration (IC50) is 0.3 µM (antagonist) in [21]; 0.04 µM (antagonist) in [28]; 0.03 µM (antagonist) in experiment [29]; 5 µM (antagonist) in experiment [30]; 0.08 µM (antagonist) in experiment [10]; 2.6 µM (antagonist) in experiment [31].
`Oc1cccc(-c2nc(N3CCOCC3)c3oc4ncccc4c3n2)c1`: the outcome in [32] and in experiment [33] was inactive. For the same molecule, the Activity entry in experiment [34] was “Antagonist”.
For the molecule `NC(=O)c1ccc(-c2nc(-c3ccc4c(c3)OCCO4)c(-c3ccccn3)[nH]2)cc1`, the IC50 in [35] is 5.8 µM (antagonist); in experiment [16], 9.1 µM (antagonist).
Regarding `O=c1cc(N2CCOCC2)oc2c(-c3ccccc3)cccc12` [LY-294002], the IC50 in [36] was 2 µM (antagonist); in [9], 1.4 µM (antagonist).

The values are drawn from ChEMBL document CHEMBL1150976, “The selectivity of protein kinase inhibitors: a further update” (Biochem J, 2007).
